Read-outs that look alike come from different tables or passages of the source.
Test: Determination of metabolic stability in human liver microsomes
Format: in vitro ADME
Conditions: for half-life at 1 μM: pH 7.4, read-out: In vitro half-life t1/2 in human liver microsomes; for half-life at 1 μM / In vitro half-life t1/2 in human liver microsomes: 0.5 mg/mL human liver microsomes, 1 μM test compound, 2 mM NADPH, 37° C., 0-30 minutes; for stabilization in comparison to undeuterated counterpart (in words): repeated experiment, Table 4, vs cilostazol (106, 100) or dehydrocilostazol (110)
Experimental: Human liver microsomes (20 mg/mL) were obtained from Xenotech, LLC (Lenexa, Kans.). β-nicotinamide adenine dinucleotide phosphate, reduced form (NADPH), magnesium chloride (MgCl2), and dimethyl sulfoxide (DMSO) were purchased from Sigma-Aldrich.
7.5 mM stock solutions of test compounds, as well as cilostazol and 7-ethoxycoumarin (as a positive control) were prepared in DMSO. The 7.5 mM stock solutions were diluted to 50 μM in acetonitrile (ACN). The 20 mg/mL human liver microsomes were diluted to 0.625 mg/mL in 0.1 M potassium phosphate buffer, pH 7.4, containing 3 mM MgCl2. The diluted microsomes were added to wells of a 96-well deep-well polypropylene plate in triplicate. Ten μL of the 50 μM test compound was added to the microsomes and the mixture was pre-warmed for 10 minutes. Reactions were initiated by addition of pre-warmed NADPH solution. The final reaction volume was 0.5 mL and contained 0.5 mg/mL human liver microsomes, 1 μM test compound, and 2 mM NADPH in 0.1 M potassium phosphate buffer, pH 7.4, and 3 mM MgCl2. The reaction mixtures were incubated at 37° C., and 50 μL aliquots were removed at 0, 5, 10, 20, and 30 minutes and added to shallow-well 96-well plates which contained 50 μL of ice-cold ACN with internal standard to stop the reactions. The plates were stored at 4° C. for 20 minutes after which 100 μL of water was added to the wells of the plate before centrifugation to pellet precipitated proteins. Supernatants were transferred to another 96-well plate and analyzed for amounts of parent remaining by LC-MS/MS using an Applied Bio-systems API 4000 mass spectrometer.
The in vitro t1/2s for test compounds were calculated from the slopes of the linear regression of % parent remaining (ln) vs incubation time relationship: in vitro t1/2=0.693/k, where k=−[slope of linear regression of % parent remaining(ln) vs incubation time]. Data analysis was performed using Microsoft Excel Software.

Compound	half-life at 1 μM (repeated experiment (Table 4)) [h]	half-life at 1 μM (first experiment (Table 3)) [h]	In vitro half-life t1/2 in human liver microsomes (repeated experiment (Table 4))	stabilization in comparison to undeuterated counterpart (in words)	further results
[2H]C1([2H])CC(n2nnnc2CCCCOc2ccc3c(c2)CCC(=O)N3)CC([2H])([2H])C1([2H])[2H] [Compound 112, 6-(4-(1-(3,3,4,4,5,5-d6-Cyclohexyl)-1H-tetrazol-5-yl)butoxy)-3,4-dihydroquinolin-2(1H)-one]	1.32	–	–	–	–
O=C1CCc2cc(OCCCCc3nnnn3C3CCCCC3)ccc2N1 [Cilostazol, 6-[4-(1-Cyclohexyl-1H-tetrazol-5-yl)butoxy]-3,4-dihydro-2(1H)-quinolinone]	–	0.78	1.03 h	–	–
[2H]C1([2H])C([2H])([2H])C([2H])([2H])C([2H])(n2nnnc2CCCCOc2ccc3c(c2)CCC(=O)N3)C([2H])([2H])C1([2H])[2H] [Compound 106, 6-(4-(1-(Cyclohexyl-d11)-1H-tetrazol-5-yl)butoxy)-3,4-dihydroquinolin-2(1H)-one]	–	1.32	1.45 h	stabilized	–
[2H]C1([2H])CCC(n2nnnc2CCCCOc2ccc3c(c2)CCC(=O)N3)CC1 [Compound 107, 6-(4-(1-(4,4-d2-Cyclohexyl)-1H-tetrazol-5-yl)butoxy)-3,4-dihydroquinolin-2(1H)-one]	–	0.595	–	–	–
[2H]C1([2H])CCC(n2nnnc2CCCCOc2ccc3c(c2)C([2H])([2H])C([2H])([2H])C(=O)N3)CC1 [Compound 101, 6-(4-(1-(4,4-d2-Cyclohexyl)-1H-tetrazol-5-yl)butoxy)-3,3,4,4-d4-dihydroquinolin-2(1H)-one]	–	0.753	–	–	–
[2H]C1([2H])CC(n2nnnc2CCCCOc2ccc3[nH]c(=O)ccc3c2)CC([2H])([2H])C1([2H])[2H] [Compound 113, 6-(4-(1-(3,3,4,4,5,5-d6-Cyclohexyl)-1H-tetrazol-5-yl)butoxy)-3,4-dihydroquinolin-2(1H)-one]	1.49	–	–	–	–
O=c1ccc2cc(OCCCCc3nnnn3C3CCCCC3)ccc2[nH]1 [Dehydrocilostazol, reference compound]	1.31	–	–	–	–
[2H]C1([2H])C([2H])([2H])C([2H])([2H])C([2H])(n2nnnc2CCCCOc2ccc3[nH]c(=O)ccc3c2)C([2H])([2H])C1([2H])[2H] [Compound 110]	–	1.24	Stable*	stabilized	–
[2H]C1([2H])C(=O)Nc2ccc(OCCCCc3nnnn3C3([2H])C([2H])([2H])C([2H])([2H])C([2H])([2H])C([2H])([2H])C3([2H])[2H])cc2C1([2H])[2H] [Compound 100, 6-(4-(1-(Cyclohexyl-d11)-1H-tetrazol-5-yl)butoxy)-3,3,4,4-d4-dihydroquinolin-2(1H)-one]	–	–	1.64 h	stabilized	In vitro half-life t1/2 in human liver microsomes (first experiment (Table 3)): 0.695 h; stabilization in human liver microsomes (in words) (previous (first) experiment, Table 3): no stabilization

Source: patent US8765723B2, “Analogues of cilostazol” (CoNCERT Pharmaceuticals Inc., priority 2007, dated 2014)
